Measured values: ChEMBL document CHEMBL5241120, “Insights into the medicinal chemistry of heterocycles integrated with a pyrazolo[1,5-a]pyrimidine scaffold” (RSC Med Chem, 2022)
≈ marks a conversion by molar mass, not a printed value.

Key:
Escherichia coli [1] = experiment: Antibacterial activity against Escherichia coli assessed as zone of inhibition; assay type: functional
Bacillus subtilis [2] = experiment: Antibacterial activity against Bacillus subtilis assessed as zone of inhibition; assay type: functional
Aspergillus niger = experiment: Antifungal activity against Aspergillus niger; assay type: functional
Aspergillus clavatus = experiment: Antifungal activity against Aspergillus clavatus; assay type: functional
[3] = Inhibition of Hepatitis C virus NS3 protease; assay type: functional, Hepacivirus hominis
Bacillus subtilis [4] = experiment: Antibacterial activity against Bacillus subtilis; assay type: functional
Escherichia coli [5] = experiment: Antibacterial activity against Escherichia coli; assay type: functional
Candida albicans = experiment: Antifungal activity against Candida albicans assessed as zone of inhibition; assay type: functional
Mus musculus [6] = experiment: Antiinflammatory activity in mouse assessed as inhibition of paw edema after 4 hrs; assay type: functional; set-up: scale not given: the % may be the effect or the level left
Staphylococcus aureus = experiment: Antibacterial activity against Staphylococcus aureus assessed as zone of inhibition at 5 mg/ml; assay type: functional; conditions: read-out: IZ
Androgen receptor = target: T1, Androgen receptor (Homo sapiens, UniProt P10275); experiment: Antagonist activity at androgen receptor (unknown origin)
T1 sequence (P10275 whole entry): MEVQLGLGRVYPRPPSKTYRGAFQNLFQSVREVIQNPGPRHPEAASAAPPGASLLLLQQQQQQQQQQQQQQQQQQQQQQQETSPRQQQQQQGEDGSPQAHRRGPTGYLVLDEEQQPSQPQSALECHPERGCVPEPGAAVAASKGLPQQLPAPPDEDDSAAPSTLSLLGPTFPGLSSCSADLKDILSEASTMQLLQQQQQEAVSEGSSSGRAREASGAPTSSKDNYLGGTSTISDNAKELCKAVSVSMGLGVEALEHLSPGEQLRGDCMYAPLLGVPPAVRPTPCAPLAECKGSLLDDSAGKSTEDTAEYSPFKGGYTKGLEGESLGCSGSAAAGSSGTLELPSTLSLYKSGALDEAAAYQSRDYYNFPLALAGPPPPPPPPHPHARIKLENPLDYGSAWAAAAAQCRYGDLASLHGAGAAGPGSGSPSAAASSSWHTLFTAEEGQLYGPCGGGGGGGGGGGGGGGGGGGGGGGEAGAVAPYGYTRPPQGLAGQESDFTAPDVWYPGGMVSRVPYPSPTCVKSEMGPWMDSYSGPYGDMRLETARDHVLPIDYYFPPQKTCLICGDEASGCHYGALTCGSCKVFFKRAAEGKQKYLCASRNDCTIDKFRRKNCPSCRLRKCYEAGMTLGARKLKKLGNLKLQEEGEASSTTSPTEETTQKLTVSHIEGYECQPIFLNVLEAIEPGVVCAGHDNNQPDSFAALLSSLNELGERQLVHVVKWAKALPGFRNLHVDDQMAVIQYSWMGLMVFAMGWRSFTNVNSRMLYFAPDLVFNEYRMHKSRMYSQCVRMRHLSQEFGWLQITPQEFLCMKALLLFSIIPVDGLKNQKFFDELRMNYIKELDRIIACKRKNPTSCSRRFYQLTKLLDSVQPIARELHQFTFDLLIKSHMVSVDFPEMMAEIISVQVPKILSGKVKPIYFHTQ

[7] = target: T2, liver carboxylesterase (CES) (Sus scrofa, UniProt Q29550); experiment: Inhibition of pig liver CES at 20 uM relative to control; assay type: tissue-based
T2 sequence (Q29550 whole entry): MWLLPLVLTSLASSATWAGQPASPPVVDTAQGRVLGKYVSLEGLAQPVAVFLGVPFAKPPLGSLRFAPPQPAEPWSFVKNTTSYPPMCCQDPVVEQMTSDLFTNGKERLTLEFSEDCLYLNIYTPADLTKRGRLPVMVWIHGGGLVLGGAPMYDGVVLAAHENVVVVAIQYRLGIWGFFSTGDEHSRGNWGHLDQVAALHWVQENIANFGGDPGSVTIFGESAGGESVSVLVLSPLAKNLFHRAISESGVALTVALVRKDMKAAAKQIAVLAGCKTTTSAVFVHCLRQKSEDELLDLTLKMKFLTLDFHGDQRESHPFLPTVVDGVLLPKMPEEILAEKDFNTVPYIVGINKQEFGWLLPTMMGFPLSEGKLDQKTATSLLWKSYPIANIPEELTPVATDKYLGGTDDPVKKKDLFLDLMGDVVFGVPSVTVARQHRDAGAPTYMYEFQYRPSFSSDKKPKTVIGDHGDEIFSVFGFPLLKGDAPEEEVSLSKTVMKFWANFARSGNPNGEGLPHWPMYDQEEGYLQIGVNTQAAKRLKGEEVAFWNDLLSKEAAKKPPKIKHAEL

[8] = Antioxidant activity assessed as ABTS radical scavenging activity; assay type: functional
Rattus norvegicus [9] = experiment: Analgesic activity in Sprague-Dawley rat at 15 mg/kg after 1 hr by hot plate test; assay type: functional
Rattus norvegicus [10] = experiment: Analgesic activity in Sprague-Dawley rat at 15 mg/kg after 2 hrs by hot plate test; assay type: functional
SiHa = experiment: Cytotoxicity against human SiHa cells by MTT assay; assay type: functional, cell-based
A549 = experiment: Cytotoxicity against human A549 cells by MTT assay; assay type: functional, cell-based
Mus musculus [11] = experiment: Anxiolytic activity in mouse assessed as time spent in light at 1 mg/kg, po; assay type: functional
Mus musculus [12] = experiment: Anxiolytic activity in mouse assessed as transfer number at 1 mg/kg, po; assay type: functional
Escherichia coli [13] = experiment: Antibacterial activity against Escherichia coli assessed as zone of inhibition at 5 mg/ml; assay type: functional; conditions: read-out: IZ
Mus musculus [14] = experiment: Antiinflammatory activity in mouse assessed as inhibition of paw edema after 24 hrs; assay type: functional; set-up: scale not given: the % may be the effect or the level left
CHO-K1 = experiment: Cytotoxicity against CHO-K1 cells by MTT assay; assay type: toxicity, cell-based, Cricetulus griseus; set-up: concentration or dose not given beside the values; conditions: chinese hamster
Enterococcus faecalis = experiment: Antibacterial activity against Enterococcus faecalis assessed as zone of inhibition at 5 mg/ml; assay type: functional; conditions: read-out: IZ
Proteus vulgaris = experiment: Antibacterial activity against Proteus vulgaris assessed as zone of inhibition at 5 mg/ml; assay type: functional; conditions: read-out: IZ
Streptococcus mutans = experiment: Antibacterial activity against Streptococcus mutans assessed as zone of inhibition at 5 mg/ml; assay type: functional; conditions: read-out: IZ
Bacillus subtilis [15] = experiment: Antibacterial activity against Bacillus subtilis assessed as zone of inhibition at 5 mg/ml; assay type: functional; conditions: read-out: IZ

In the case of `Cc1ccc(-n2cnc3c(cnn3-c3cc(C)nc4c(C#N)cnn34)c2=O)cc1`, the “inhibition zone (IZ)” value (Escherichia coli [1]) is reported as 12.2 mm, the “inhibition zone (IZ)” value (Bacillus subtilis [2]) is reported as 14 mm and the MIC (Aspergillus niger) is reported as 10 µg/mL (≈ 26.2 µM). The MIC (Aspergillus clavatus) was 10 µg/mL (≈ 26.2 µM).
In the case of `CC(C)OC(=O)[C@H](C)N[P@](=O)(OC[C@H]1O[C@@H](n2ccc(=O)[nH]c2=O)[C@](C)(F)[C@@H]1O)Oc1ccccc1` [SOFOSBUVIR], the IC50 [3] is reported as 3.2 µg/mL (≈ 6.04 µM).
With `Cc1cc(NN2C(=O)C3CCCCC3C2=O)n2ncc(C#N)c2n1` (centres undefined) the MIC (Bacillus subtilis [4]) was 10 µg/mL (≈ 30.8 µM), the MIC (Escherichia coli [5]) was 10 µg/mL (≈ 30.8 µM) and the “inhibition zone (IZ)” value (Candida albicans) was 19.1 mm. For the same compound, the MIC (Aspergillus niger) was 10 µg/mL (≈ 30.8 µM) and the MIC (Aspergillus clavatus) was 10 µg/mL (≈ 30.8 µM).
For `CC(C)Cc1ccc(C(C)C(=O)O)cc1` (centres undefined) [IBUPROFEN], the Activity (Mus musculus [6]) was 66.67%.
`Nc1nc2c(/N=N/c3ccc(C(F)(F)F)cc3)c(N)nn2c(N)c1/N=N/c1ccc(F)cc1` showed a zone of inhibition at 5000 µg/mL (Staphylococcus aureus) of 10 mm.
`Cc1ccc(C2CC(C(F)(F)F)n3nc(C(N)=O)cc3N2)cc1` (centres undefined) gave an IC50 (Androgen receptor) of 45.8 µM.
Compound `CC1=Nc2cc(-c3ccccc3)nn2C(=O)/C1=N\Nc1ccc(C)cc1` has an inhibition at 20 µM [7] of 22.8%, an Activity [8] of 0.21 µM and an Activity (Rattus norvegicus [9]) of 43.9%. For the same compound, the Activity (Rattus norvegicus [10]) was 65.9%.
For `COc1ccc(-c2cc(-c3nn4cc(-c5ccncc5)cnc4c3S(=O)(=O)c3cc([N+](=O)[O-])c(OC)c([N+](=O)[O-])c3)on2)cc1`, the IC50 (SiHa) was 0.08 µM and the IC50 (A549) was 0.054 µM.
For `CN1C(=O)CN=C(c2ccccc2)c2cc(Cl)ccc21` [DIAZEPAM], the Activity (Mus musculus [11]) was 171.6% and the Activity (Mus musculus [12]) was 171.6.
With `Nc1nc2c(/N=N/c3ccc(F)cc3)c(N)nn2c(N)c1/N=N/c1ccc(F)cc1` the zone of inhibition at 5000 µg/mL (Escherichia coli [13]) was 10 mm.
`O=[N+]([O-])c1ccc(OP(=O)(O)Oc2ccc([N+](=O)[O-])cc2)cc1` showed an inhibition at 20 µM [7] of 1.8%.
`COc1ccc(-c2cnc3c(C(=O)Nc4c(C)n(C)n(-c5ccccc5)c4=O)cnn3c2N)cc1` showed an Activity (Mus musculus [14]) of 25% and an Activity (CHO-K1) of 72.96%.
In the case of `CC(=O)c1cnc2c(C(=O)Nc3c(C)n(C)n(-c4ccccc4)c3=O)cnn2c1C`, the Activity (Mus musculus [14]) is reported as 16.57% and the Activity (CHO-K1) is reported as 72.46%.
Compound `CC1(C2CC(C(F)(F)F)n3nc(C(=O)O)cc3N2)CC1` (centres undefined) has an IC50 (Androgen receptor) of 214 µM.
For `Cc1cc(C)nc(NS(=O)(=O)c2ccc(/N=N/c3c(N)nc4c(/N=N/c5ccc(F)cc5)c(N)nn4c3N)cc2)n1`, the zone of inhibition at 5000 µg/mL (Enterococcus faecalis) was 9 mm, the zone of inhibition at 5000 µg/mL (Proteus vulgaris) was 9 mm and the zone of inhibition at 5000 µg/mL (Streptococcus mutans) was 9 mm. It also gave a zone of inhibition at 5000 µg/mL (Staphylococcus aureus) of 9 mm, a zone of inhibition at 5000 µg/mL (Bacillus subtilis [15]) of 9 mm and a zone of inhibition at 5000 µg/mL (Escherichia coli [13]) of 9 mm.
